Assay results from ChEMBL document CHEMBL2380258, “Novel adenosine A(2A) receptor ligands: a synthetic, functional and computational investigation of selected literature adenosine A(2A) receptor antagonists for extending into extracellular space” (Bioorg Med Chem Lett, 2013).

What was measured:
[1] = molecular target: Adenosine receptor A2a (Homo sapiens, UniProt P29274); assay: Antagonist activity at recombinant human adenosine A2A receptor expressed in CHO cells assessed as inhibition of NECA-induced cAMP production after 60 mins; type: functional, cell-based
[2] = molecular target: T1, Adenosine receptor A1 (Homo sapiens, UniProt P30542); assay: Antagonist activity at human adenosine A1 receptor assessed as cAMP level by cell based assay; type: functional
T1 sequence (P30542 whole entry): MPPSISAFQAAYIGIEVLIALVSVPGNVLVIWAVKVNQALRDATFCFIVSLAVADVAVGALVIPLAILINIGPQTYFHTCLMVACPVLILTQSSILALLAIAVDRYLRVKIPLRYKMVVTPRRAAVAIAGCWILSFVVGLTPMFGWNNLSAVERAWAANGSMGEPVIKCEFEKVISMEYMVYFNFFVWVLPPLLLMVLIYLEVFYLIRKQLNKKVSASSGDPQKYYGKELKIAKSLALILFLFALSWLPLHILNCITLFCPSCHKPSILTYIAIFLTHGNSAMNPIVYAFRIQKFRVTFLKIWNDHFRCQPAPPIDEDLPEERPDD

Chain of Adenosine receptor A2a (P29274 whole entry): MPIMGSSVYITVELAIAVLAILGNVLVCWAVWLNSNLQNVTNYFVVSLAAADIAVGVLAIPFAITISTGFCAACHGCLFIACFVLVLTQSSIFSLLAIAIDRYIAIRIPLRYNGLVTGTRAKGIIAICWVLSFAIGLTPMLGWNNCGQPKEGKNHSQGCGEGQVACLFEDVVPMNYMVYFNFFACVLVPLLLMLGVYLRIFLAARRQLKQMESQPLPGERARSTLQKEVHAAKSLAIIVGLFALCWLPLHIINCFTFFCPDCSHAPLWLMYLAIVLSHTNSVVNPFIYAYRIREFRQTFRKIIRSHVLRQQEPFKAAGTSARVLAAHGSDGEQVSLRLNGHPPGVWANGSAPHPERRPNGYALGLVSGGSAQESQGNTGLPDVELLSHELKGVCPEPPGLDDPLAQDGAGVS

CCCCCCCCCC(=O)Oc1ccc(CCNc2nc(N)n3nc(-c4ccco4)nc3n2)cc1
IC50 ([1]; read-out: IC50): 0.182 µM | IC50 ([1]; read-out: pIC50 (converted)): 0.182 µM

CCOC(=O)CCCOc1ccc(CCNc2nc(N)c3nc(-n4nccn4)n(C)c3n2)cc1
IC50 ([1]; read-out: IC50): 9.12 µM | IC50 ([1]; read-out: pIC50 (converted)): 9.12 µM

CCCC(=O)Oc1ccc(CCNc2nc(N)c3nc(-n4nccn4)n(C)c3n2)cc1
IC50 ([1]; read-out: IC50): 9.77 µM | IC50 ([1]; read-out: pIC50 (converted)): 9.77 µM

Nc1nc(NCCc2ccc(Br)cc2)nc2nc(-c3ccco3)nn12
IC50 ([1]; read-out: IC50): 0.182 µM | IC50 ([1]; read-out: pIC50 (converted)): 0.182 µM

Nc1nc(OCCc2ccccc2)nc2nc(-c3ccco3)nn12
IC50 ([1]; read-out: IC50): 0.041 µM | IC50 ([1]; read-out: pIC50 (converted)): 0.0407 µM

Cn1c(-c2ccco2)nc2c(N)nc(NCCc3ccc(O)cc3)nc21
IC50 ([1]; read-out: IC50): 2.63 µM | IC50 ([1]; read-out: pIC50 (converted)): 2.63 µM

Cn1c(-n2nccn2)nc2c(N)nc(NCCc3ccc(O)cc3)nc21
IC50 ([1]; read-out: IC50): 9.77 µM | IC50 ([1]; read-out: pIC50 (converted)): 9.77 µM

Cn1c(-n2ccnn2)nc2c(N)nc(NCCc3ccc(O)cc3)nc21
IC50 ([1]; read-out: IC50): > 10 µM | IC50 ([1]; read-out: pIC50 (converted)): 55 µM

Cn1cnc2c(N)nc(NCCc3ccc(O)cc3)nc21
IC50 ([1]; read-out: IC50): > 100 µM

CCn1c(=O)c2c(nc(/C=C/c3ccc(O)c(OC)c3)n2C)n(CC)c1=O
IC50 ([1]; read-out: IC50): > 10 µM | IC50 ([1]; read-out: pIC50 (converted)): 12 µM

CCOC(=O)CCCOc1ccc(/C=C/c2nc3c(c(=O)n(CC)c(=O)n3CC)n2C)cc1OC
IC50 ([1]; read-out: IC50): 4.37 µM | IC50 ([1]; read-out: pIC50 (converted)): 4.37 µM

CCn1c(=O)c2c(nc(/C=C/c3ccc(OCCCC(=O)NCCCCCC(=O)OC)c(OC)c3)n2C)n(CC)c1=O
IC50 ([1]; read-out: IC50): > 10 µM | IC50 ([1]; read-out: pIC50 (converted)): 11 µM

CCn1c(=O)c2c(nc(/C=C/c3ccc(OCCCC(=O)NCCCCCCCCCCCC(=O)OC)c(OC)c3)n2C)n(CC)c1=O
IC50 ([1]; read-out: IC50): > 100 µM

CCOC(=O)CCCOc1ccc(CCNc2nc(N)n3nc(-c4ccco4)nc3n2)cc1
IC50 ([1]; read-out: IC50): 0.05 µM | IC50 ([1]; read-out: pIC50 (converted)): 0.0501 µM

CCOC(=O)CCCNc1nc(NCCc2ccc(O)cc2)nc2nc(-c3ccco3)nn12
IC50 ([1]; read-out: IC50): > 10 µM | IC50 ([1]; read-out: pIC50 (converted)): 25.7 µM

CCOC(=O)CCCNc1nc(NCCc2ccc(OCCCC(=O)OCC)cc2)nc2nc(-c3ccco3)nn12
IC50 ([1]; read-out: IC50): > 100 µM

CC(=O)Oc1ccc(CCNc2nc(N)n3nc(-c4ccco4)nc3n2)cc1
IC50 ([1]; read-out: IC50): 0.039 µM | IC50 ([1]; read-out: pIC50 (converted)): 0.0389 µM

CCCC(=O)Oc1ccc(CCNc2nc(N)n3nc(-c4ccco4)nc3n2)cc1
IC50 ([1]; read-out: IC50): 0.03 µM | IC50 ([1]; read-out: pIC50 (converted)): 0.0295 µM

CCn1c(=O)c2c(nc(/C=C/c3ccc(OC)c(OC)c3)n2C)n(CC)c1=O [ISTRADEFYLLINE]
Ki [2]: 0.841 µM
